In ChEMBL document CHEMBL3045543, “Predictions and correlations of structure activity relationship of some aminoantipyrine derivatives on the basis of theoretical and experimental ground” (Med Chem Res, 2012):
Values after ≈ are worked out from the molar mass of the structure shown.

Legend:
[1] = tested on: Pseudomonas; test: Antibacterial activity against […] at 100 ug/ml by agar cup-plate method; type: functional; settings: read-out: IZ
[2] = organism: Mus musculus; test: Toxicity in Mus musculus (mouse) assessed as irritation; type: organism-based; settings: in vivo
[3] = tested on: Escherichia coli; test: Antibacterial activity against Escherichia coli at 100 ug/ml by agar cup-plate method; type: functional; settings: read-out: IZ
[4] = tested on: Pseudomonas aeruginosa; test: Antibacterial activity against Pseudomonas aeruginosa at 100 ug/ml by agar cup-plate method; type: functional; settings: read-out: IZ
[5] = tested on: Staphylococcus aureus; test: Antibacterial activity against Staphylococcus aureus at 100 ug/ml by agar cup-plate method; type: functional; settings: read-out: IZ
[6] = tested on: Pseudomonas aeruginosa; test: Antibacterial activity against Pseudomonas aeruginosa after 24 hr by broth dilution method; type: functional
[7] = tested on: Pseudomonas; test: Antibacterial activity against […] after 24 hr by broth dilution method; type: functional
[8] = tested on: Escherichia coli; test: Antibacterial activity against Escherichia coli after 24 hr by broth dilution method; type: functional
[9] = tested on: Staphylococcus aureus; test: Antibacterial activity against Staphylococcus aureus after 24 hr by broth dilution method; type: functional

Compound: Cc1c(/N=C/c2ccccc2)c(=O)n(-c2ccccc2)n1C
- zone of inhibition at 100 µg/mL [1]: 10 mm
- Activity [2]: Non-toxic
- zone of inhibition at 100 µg/mL [3]: < 5 mm
- zone of inhibition at 100 µg/mL [4]: < 5 mm
- zone of inhibition at 100 µg/mL [5]: > 15 mm

Compound: Cc1c(/N=C/c2ccc(Cl)cc2)c(=O)n(-c2ccccc2)n1C
- zone of inhibition at 100 µg/mL [1]: < 5 mm
- Activity [2]: Non-toxic
- zone of inhibition at 100 µg/mL [3]: < 5 mm
- zone of inhibition at 100 µg/mL [4]: 5 mm
- zone of inhibition at 100 µg/mL [5]: 10 mm

Compound: Cc1c(/N=C/c2ccc(O)cc2)c(=O)n(-c2ccccc2)n1C
- zone of inhibition at 100 µg/mL [1]: < 5 mm
- Activity [2]: Non-toxic
- zone of inhibition at 100 µg/mL [3]: 5 mm
- zone of inhibition at 100 µg/mL [4]: 5 mm
- zone of inhibition at 100 µg/mL [5]: 10 mm

Compound: COc1ccc(/C=N/c2c(C)n(C)n(-c3ccccc3)c2=O)cc1
- zone of inhibition at 100 µg/mL [1]: 10 mm
- Activity [2]: Non-toxic
- zone of inhibition at 100 µg/mL [3]: 5 mm
- zone of inhibition at 100 µg/mL [4]: < 5 mm
- zone of inhibition at 100 µg/mL [5]: 5 mm

Compound: Cc1c(/N=C/c2cccc([N+](=O)[O-])c2)c(=O)n(-c2ccccc2)n1C
- zone of inhibition at 100 µg/mL [1]: < 5 mm
- Activity [2]: Non-toxic
- zone of inhibition at 100 µg/mL [3]: 5 mm
- zone of inhibition at 100 µg/mL [4]: < 5 mm
- zone of inhibition at 100 µg/mL [5]: 5 mm

Compound: Cc1c(/N=C/c2ccccc2Cl)c(=O)n(-c2ccccc2)n1C
- MIC [6]: 100 µg/mL (≈ 307 µM)
- zone of inhibition at 100 µg/mL [1]: > 15 mm
- Activity [2]: Non-toxic
- zone of inhibition at 100 µg/mL [3]: > 15 mm
- zone of inhibition at 100 µg/mL [4]: > 15 mm
- MIC [7]: 100 µg/mL (≈ 307 µM)
- MIC [8]: 100 µg/mL (≈ 307 µM)
- MIC [9]: 75 µg/mL (≈ 230 µM)
- zone of inhibition at 100 µg/mL [5]: > 15 mm

Compound: Cc1c(/N=C/c2ccco2)c(=O)n(-c2ccccc2)n1C
- MIC [6]: 75 µg/mL (≈ 267 µM)
- zone of inhibition at 100 µg/mL [1]: > 15 mm
- Activity [2]: Non-toxic
- zone of inhibition at 100 µg/mL [3]: > 15 mm
- zone of inhibition at 100 µg/mL [4]: > 15 mm
- MIC [7]: 75 µg/mL (≈ 267 µM)
- MIC [8]: 75 µg/mL (≈ 267 µM)
- MIC [9]: 50 µg/mL (≈ 178 µM)
- zone of inhibition at 100 µg/mL [5]: > 15 mm

Compound: Cc1c(/N=C/c2ccccc2O)c(=O)n(-c2ccccc2)n1C
- MIC [6]: 100 µg/mL (≈ 325 µM)
- zone of inhibition at 100 µg/mL [1]: > 15 mm
- Activity [2]: Non-toxic
- zone of inhibition at 100 µg/mL [3]: > 15 mm
- zone of inhibition at 100 µg/mL [4]: 10 mm
- MIC [7]: 75 µg/mL (≈ 244 µM)
- MIC [8]: 75 µg/mL (≈ 244 µM)
- MIC [9]: 50 µg/mL (≈ 163 µM)
- zone of inhibition at 100 µg/mL [5]: > 15 mm

Compound: Cc1c(/N=C/c2ccccc2[N+](=O)[O-])c(=O)n(-c2ccccc2)n1C
- zone of inhibition at 100 µg/mL [1]: < 5 mm
- Activity [2]: Non-toxic
- zone of inhibition at 100 µg/mL [3]: < 5 mm
- zone of inhibition at 100 µg/mL [4]: 5 mm
- zone of inhibition at 100 µg/mL [5]: 10 mm

Compound: CC1(C)S[C@@H]2[C@H](NC(=O)[C@H](N)c3ccccc3)C(=O)N2[C@H]1C(=O)O [AMPICILLIN]
- MIC [6]: 25 µg/mL (≈ 71.5 µM)
- zone of inhibition at 100 µg/mL [1]: 10 mm
- Activity [2]: Non-toxic
- zone of inhibition at 100 µg/mL [3]: 10 mm
- zone of inhibition at 100 µg/mL [4]: > 15 mm
- MIC [7]: 25 µg/mL (≈ 71.5 µM)
- MIC [8]: 25 µg/mL (≈ 71.5 µM)
- MIC [9]: 25 µg/mL (≈ 71.5 µM)
- zone of inhibition at 100 µg/mL [5]: > 15 mm

Compound: [H]/N=C(/N)N[C@H]1[C@H](O)[C@@H](O)[C@H](O[C@@H]2O[C@@H](C)[C@](O)(C=O)[C@H]2O[C@@H]2O[C@@H](CO)[C@H](O)[C@@H](O)[C@@H]2NC)[C@@H](N/C(N)=N\[H])[C@@H]1O [STREPTOMYCIN]
- zone of inhibition at 100 µg/mL [1]: > 15 mm
- Activity [2]: Non-toxic
- zone of inhibition at 100 µg/mL [3]: > 15 mm
- zone of inhibition at 100 µg/mL [4]: > 15 mm
- zone of inhibition at 100 µg/mL [5]: > 15 mm
